# Test results published in patent US7189391B2, “Method of in vitro preconditioning healthy donor's myoblasts before transplantation thereof in compatible patients suffering of myopathies like muscular dystrophy, for improving transplantation success” (Université Laval, priority 1996, dated 2007).
# Assays:
# [1] = tested on: primary cultures of myoblasts; assay: Transplantation of TnI-βGal myoblasts cultured with phorbol ester (TPA); format: in vivo, mouse; details: TPA 100 ng/ml, 2 days culture, n=5 mice
# Description: Imm 7 neo: expresses neomycin. Imm 7 Matrilysine: expresses neomycin and matrilysine. Tn I βgal: untreated transgenic mouse myoblasts expressing β-Gal. Tn I βGal+TPA: transgenic mouse myoblasts/β-Gal treated with phorbol ester.
# Second experiment: primary cultures of myoblasts were obtained from transgenic mice (TnI-βGal+TPA). Myoblasts were cultured for two (2) days in the presence of phorbol ester (TPA 100 ng/ml) which also stimulates the expression metalloproteases.
# [2] = tested on: mdx mice; assay: Intramuscular injections of bFGF after myoblast transplantation in mdx mice; format: in vivo, mouse; details: intramuscular injections of bFGF vs HBSS control
# Description: (§1) The mdx mice were divided in three groups. Six mdx mice of one group were grafted in both tibialis anterior (TA) muscles: myoblasts grown with bFGF were injected in the left TA and myoblasts grown without bFGF were injected in the right TA. Myoblasts grown without bFGF were injected in only the left TA of six other mdx mice. These six mdx mice were then injected intramuscularly four times (after grafting 0, +1, +4 and +6 days) either with 10 μl of bFGF (100 ng/ml, 3 mice) or with 10 μl of HBSS (3 mice). The last five mice were grafted in both TA muscle with normal CD1 mouse myoblasts infected with replication defective retroviral vector LNPOZC7 (gift from Dr C. Cepko, Harvard, Boston, Mass.) which contains the LacZ gene. The left TA muscles were injected with 4 million myoblasts grown with bFGF, while the right TA muscles were injected with 4 million myoblasts grown without bFGF. Three days after grafting, these 5 mice were sacrificed to detect the number of β-galactosidase positive cells which survived in each TA muscle. The numbers of β-galactosidase positive cells were counted in 8 μm sections obtained at every 160 μm throughout the muscle. The total number of cells counted was multiplied by 20 to obtain an estimate of the number of surviving cells and a correction was made to account for the percentage of unlabelled cells in cultures with and without bFGF. […]
# [3] = tested on: mdx mice; assay: Survival of retrovirally labelled myoblasts 3 days after transplantation in TA muscle; format: in vivo, mouse; details: myoblasts grown with bFGF, 4×10^6 cells injected
# Description: as §1
# [4] = tested on: primary myoblast cultures; assay: Effects of bFGF on primary myoblast culture (cell count, desmin staining); format: cell-based, mouse
# Text: Primary myoblast cultures were established from muscle biopsies of newborn transgenic mice^26. The founder mouse (TnI Lac Z1/29) was provided by Dr. Hasting (McGill University, Montreal, Canada) onto the CD1 background and was reproduced in our laboratory. This transgenic mouse expresses the β-galactosidase gene under the control of the promoter of the quail fast skeletal muscle troponin I gene^16. […] Before starting myoblast cultures, it was necessary to identify transgenic newborns by X-gal staining of a small muscle biopsy because heterozygote transgenic mice were used as parents. Myogenic cells were released from skeletal muscle fragments of the transgenic newborns by serial enzyme treatments. First, a one hour digestion was done with 600 U/ml collagenase (Sigma, St. Louis, Mo., USA). This was followed by a 30 minute incubation in Hanck's balanced salt solution (HBSS) containing 0.1% w/v trypsin (Gibco Lab, Grand Island, N.Y., USA). Satellite cells were placed in 75 cm^2 culture flasks (Coster, Cambridge, Mass., USA) in proliferating medium, i.e. 199 medium (Gibco Lab.) with 15% fetal bovine serum (Gibco Lab.), 1% penicillin (10,000 U/ml) and 1% streptomycin (10,000 U/ml).
# One day after starting culture, the culture medium of some flasks was replaced by medium containing 100 ng/ml human recombinant bFGF (Sigma). Three days after starting culture, myoblasts were detached from the flasks with 0.1% trypsin followed by three suspensions in HBSS and centrifugations (6500 RPM, 5 minutes). The final cell pellet was diluted in only 40 μl of HBSS.
# The primary cultures were washed with PBS and fixed with 100% methanol at −4° C. They were then washed again 3 times with PBS and incubated 1 hr with a mAb anti-human desmin (Dako, Copenhagen, Denmark) diluted 1/50 with PBS containing 1% blocking serum (i.e. 0.33% rabbit serum, 0.33% horse serum and 0.33 fetal calf serum). They were washed 3 times with PBS with 1% blocking serum and incubated 1 hr with a 1/100 dilution (in PBS with 1% blocking serum) of a rabbit anti-mouse immunoglobulin (Dako).
# To try to understand the beneficial effects of bFGF on myoblast transplantation, we examined the effect of a short stimulation (2 days) with 100 ng/ml bFGF on primary myoblast cultures. The total number of cells in each flask was not significant different (31.9±6.8×10^6 with bFGF n=5, 30.0±5.8×10^6 without FGF n=9, unpaired t-test: p=0.573). […] In these cultures, there was no difference in the percentage of myogenic nuclei (nuclei in myoblasts and in myotubes) between the two groups of cultures (Table 3, line 1). More myogenic cells were however fused in the absence of bFGF (Table 3, line 2). There was an higher percentage of the total nuclei (including myoblasts, myotubes and fibroblasts) which were myoblast nuclei in cultures containing bFGF (Table 3, line 3). The increase of myoblasts was more clear when the percentage of myoblasts was calculated among mononuclear cells (excluding the myotubes) (Table 3, lines 4 and 5). This was however only a 35% increase.
# [5] = tested on: myoblasts; assay: Migration of transplanted myoblasts cultured with concanavalin A, anterior tibialis muscle of mice; format: in vivo, mouse; details: CMVLacZ myoblasts cultured 2 days with 20 μg/ml concanavalin A
# Description: Myoblasts infected with a retrovirus expressing a beta-galactosidase gene have been cultured for four days in the presence or absence of 20 μg/ml concanavalin A, a lectine which stimulates the expression of metalloproteases. These myoblasts were then injected in one single site of the anterior tibialis muscle of eight mice, in order to verify the degree with which the transplanted cells are capable of migrating through the recipient tissue. After thirty days, mice were sacrificed and the muscle tissue was harvested, frozen and 10 μm thick slices were mounted on slides. […] Therefore, the presence of metalloproteases in the preconditioning medium or during the transplantation is beneficial to the spreading of the transplanted cells from the site of the injection through the recipient muscle tissue.
# First experiment: Myoblasts obtained from CMVLacZ mice (expressing a Beta-galactosidase gene) were cultured for two (2) days in the presence of twenty (20) μg/ml concanavalin A, a lectine which stimulates the expression of metalloproteases. When these myoblasts were injected in the anterior tibialis muscle of recipient mice, the migration of transplanted cells was increased by three (3) fold comparatively to myoblasts having not received the concanavalin treatment.
# [6] = with bFGF 100 ng/ml, 2 days, mean ± SD
molecule,measurement,setting,value
"CCCCCCCCCCCCCC(=O)O[C@@H]1[C@@H](C)[C@@]2(O)[C@@H](C=C(CO)C[C@]3(O)C(=O)C(C)=C[C@@H]23)[C@@H]2C(C)(C)[C@]12OC(C)=O [TPA, phorbol ester]",area of generated fibers vs non-treated preparation,[1],four fold greater
same,fibers generated vs non-treated preparation,[1],four times more fibers
basic fibroblast growth factor [bFGF],difference in the percentage of hybrid or donor muscle fibers vs HBSS injections,[2],No significant difference
same,number of β-galactosidase positive cells 3 days after transplantation,"[3]; left TA muscles, 5 mice",3.29±1.54×10^5 cells
same,% of the injected cells surviving at 3 days,[3],8.2%
same,total number of cells in each flask,"[4]; 2 days with 100 ng/ml bFGF, n=5",31.9±6.8×10^6
same,increase of the percentage of myoblasts among mononuclear cells,[4]; 2 days with bFGF vs without,35%
same,% myoblast nuclei relative to non myotube nuclei,[4]; [6],32.2 ± 4.1%
same,% myoblast nuclei relative to total nuclei,[4]; [6],30.9 ± 3.8%
same,% of myoblast and myotube nucleic relative to total nuclei,[4]; [6],35.1 ± 4.8%
same,% of myotube nuclei relative to total myotube and myoblast nuclei,[4]; [6],11.5 ± 6.6%
same,% of non-myoblast nuclei relative to non myotube nuclei,[4]; [6],67.8 ± 4.1%
concanavalin A,increase of migration of transplanted cells vs untreated myoblasts,[5],3 fold
